Entries after “also recorded” stand apart in the source; their conditions may differ. Read-outs that look alike come from different tables or passages of the source. [ ]: non-standard residue; d: D form. pGlu = O=C1CC[C@@H](C(=O)O)N1
Experiments:
[1] = system: LH release from hemi-anterior pituitaries of adult male rats; test: LH release in vitro, incubation with hemi-anterior pituitaries of male rats (RIA); assay type: cell-based, rat; conditions: for LH / LH (ng/ml): 3 hr incubation
Description: (§1) Adult male and female Sprague-Dawley rats (Holtzmann, Madison, Wis.; 200-250 g) were housed two per cage under controlled conditions of temperature (23-25° C.) and lighting (on from 0500 to 1700 hr). The animals had free access to a pellet diet and to tap water.
(§2) After acclimatization for 5 or more days in the vivarium, male rats were killed by decapitation. Following removal of the posterior lobe, the anterior pituitary (AP) was bisected longitudinally, and each AP was incubated in a tube containing 0.5 ml Krebs-Ringer bicarbonate (5 mM ascorbic acid; pH 7.4) buffer (KRB) in an atmosphere of 95% O2/5% CO2 in a Dubnoff shaker (50 cycles per min) for a period of 60 min. Following this pre-incubation period, the APs were incubated for 3 hr in fresh KRB buffer alone (control), or in KRB containing one of various concentrations of synthetic mammalian (m)-LHRH, l-LHRH-III, l-LHRH-I, chicken (c)-LHRH-II, or salmon (s)-LHRH. The medium was then aspirated, and was stored frozen at −20° C. until radio-immunoassays (RIA) for FSH and LH were conducted. FSH and LH were measured using kits supplied by the National Institute of Arthritis Digestive Diabetes and Kidney Disease; hormone values were expressed in terms of NIH-rFSH-RP-2 and NIH-rLH-RP-3 standards. The experiments were repeated twice. The inter- and intra-assay coefficients of variation for FSH assays were 7.5% and 5.2%, respectively; and were 6.5% and 4.8% for LH assays.

[2] = system: FSH release from hemi-anterior pituitaries of adult male rats; test: FSH release in vitro, incubation with hemi-anterior pituitaries of male rats (RIA); assay type: cell-based, rat; conditions: for FSH (ng/ml) / FSH: 3 hr incubation
Description: as §1, §2

FSH or LH release = conditions: Yu et al., Brain Res. Bull. 1990; cited from earlier work
plasma LH = test: LH release in vivo, ovariectomized estrogen/progesterone-treated female rats, intravenous injection; parameters: species or system rat; conditions: for Change in LH from baseline, 10 minutes post-injection: saline −0.070 ± 0.122
Description: as §1
(§3) Female rats were ovariectomized under anesthesia with isoflurane 4 weeks prior to the in vivo experiments. Three days before blood sampling, each ovariectomized rat was injected subcutaneously with 50 μg estradiol benzoate (Sigma Chemical Co., St. Louis, Mo.) dissolved in 0.1 ml sesame oil, and 25 mg progesterone (Eli Lilly, Indianapolis, Ind.) dissolved in 0.5 ml sesame oil. One day prior to testing, each animal was implanted with a jugular-atrial catheter. On the morning of testing, polyethylene tubing (PE-50) was connected to the distal end of the jugular-atrial catheter on the rat's dorsum to facilitate blood sampling and intravenous injection. Animals were acclimatized one hour before initial blood samples were taken. Heparinized blood samples ([…]) were collected just before, and at 10, 30, and 60 minutes after injection of 0.5 ml isotonic saline or l-LHRH-III (10 or 100 pmole) in 0.5 ml isotonic saline. After removal of each blood sample, an equal volume of isotonic saline was administered to maintain blood volume.

[3] = system: Petromryzon marinus (lamprey) ovaries; conditions: Sower et al., Endocrinology 1993; cited from earlier work
plasma FSH = test: FSH release in vivo, ovariectomized estrogen/progesterone-treated female rats, intravenous injection; parameters: species or system rat; conditions: for Change in FSH from baseline, 10 minutes in post-injection (ng/ml): 10 minutes post-injection, saline −3.85 ± 0.82
Description: as §1, §3

[4] = system: selective FSH-releasing activity; test: In vivo screening of known LHRH's from various species for selective FSH-releasing activity; conditions: unpublished data of the applicant's laboratory
Description: Our laboratory also screened known LHRH's from various species for selective FSH-releasing activity; and we also evaluated the activity of 25 analogs of LHRH in in vivo assays.

[5] = Table 3, 10^−5M, KRB control 139.3 ± 16.9
[6] = Table 3, 10^−6M, KRB control 139.3 ± 16.9
[7] = Table 2, 10^−5M, KRB control 97.7 ± 20.4
[8] = Table 2, 10^−6M, KRB control 97.7 ± 20.4
[9] = 10 or 100 pmole intravenous, versus saline control
[10] = Table 5, 10^−6M, KRB control 149.3 ± 17.0
[11] = Table 5, 10^−7M, KRB control 149.3 ± 17.0
[12] = Table 5, 10^−8M, KRB control 149.3 ± 17.0
[13] = Table 4, 10^−6M, KRB control 157.5 ± 13.2
[14] = Table 4, 10^−7M, KRB control 157.5 ± 13.2
[15] = Table 4, 10^−8M, KRB control 157.5 ± 13.2

## [pGlu]HWSLEWKPG-NH2 [l-LHRH-I, reference compound]
[1]
  LH release in vitro (result in words): inactive; also recorded: minimal potency to release either FSH or LH
[1]; [5]
  LH: 120.4 ± 8.1 ng/mL
[1]; [6]
  LH: 134.1 ± 23.2 ng/mL
[2]
  FSH release in vitro (result in words): small but statistically significant release of FSH; also recorded: minimal potency to release either FSH or LH
[2]; [7]
  FSH (ng/ml): **178.2 ± 17.0 ng/ml
[2]; [8]
  FSH (ng/ml): *164.0 ± 29.3 ng/ml
FSH or LH release
  activity in releasing FSH or LH in rats (result in words): relatively low activity in releasing either FSH or LH

## pGlu-His-Trp-Ser-His-Asp-Trp-Lys-Pro-Gly-NH2 (XHWSHDWKPX; pyroGlu; C-terminal amide) [l-LHRH-III]
Plasma LH; 10 pmole intravenous
  Change in LH from baseline, 10 minutes post-injection: -0.022 ± 0.078 ng/mL
Plasma LH; 100 pmole intravenous
  Change in LH from baseline, 10 minutes post-injection: 0.097 ± 0.077 ng/mL
Plasma LH; [9]
  LH release in vivo (result in words): no significant increase in LH; also recorded: Neither the 10 pmole nor the 100 pmole dose of l-LHRH-III produced a statistically significant difference in LH levels
[1]
  LH release in vitro (result in words): much weaker effect on LH release; also recorded: no LH-releasing activity
[1]; Table 3, 10^−4M, KRB control 139.3 ± 16.9
  LH (ng/ml): **236.6 ± 19.3 ng/ml
[1]; [5]
  LH (ng/ml): *202.9 ± 31.2 ng/ml
[1]; [6]
  LH (ng/ml): *233.6 ± 33.8 ng/ml
[1]; Table 3, 10^−7M, KRB control 139.3 ± 16.9
  LH: 179.9 ± 28.4 ng/mL
[1]; Table 3, 10^−8M, KRB control 139.3 ± 16.9
  LH: 165.7 ± 26.6 ng/mL
[1]; Table 3, 10^−9M, KRB control 139.3 ± 16.9
  LH: 171.8 ± 27.3 ng/mL
[1]; Table 3 experiment
  concentrations active on LH release: 10^−6-10^−4 M
[1]; [10]
  LH: 176.0 ± 9.3 ng/mL
[1]; [11]
  LH: 182.7 ± 13.7 ng/mL
[1]; [12]
  LH: 163.2 ± 6.5 ng/mL
[1]; Table 5, 10^−9M, KRB control 149.3 ± 17.0
  LH: 158.7 ± 10.2 ng/mL
[2]
  FSH release in vitro (result in words): approximately equipotent toward releasing FSH
[2]; Table 2, 10^−4M, KRB control 97.7 ± 20.4
  FSH (ng/ml): ****368.6 ± 40.9 ng/ml
[2]; [7]
  FSH (ng/ml): **283.0 ± 60.8 ng/ml
[2]; [8]
  FSH (ng/ml): **278.2 ± 40.9 ng/ml
[2]; Table 2, 10^−7M, KRB control 97.7 ± 20.4
  FSH (ng/ml): ***213.0 ± 17.9 ng/ml
[2]; Table 2, 10^−8M, KRB control 97.7 ± 20.4
  FSH (ng/ml): **255.7 ± 42.4 ng/ml
[2]; Table 2, 10^−9M, KRB control 97.7 ± 20.4
  FSH (ng/ml): *228.3 ± 52.5 ng/ml
[2]; Table 2 experiment, levelled off through 10^−4 M
  concentration of maximal effect on FSH release: about 10^−6 M
[2]; Table 2 experiment, lowest concentration tested
  minimal effective concentration (MEC) for FSH release: ≤ 10^−9 M
[2]; [13]
  FSH: 215.0 ± 38.0 ng/mL
[2]; [14]
  FSH (ng/ml): *203.2 ± 16.4 ng/ml
[2]; [15]
  FSH (ng/ml): *249.3 ± 31.3 ng/ml
[2]; Table 4, 10^−9M, KRB control 157.5 ± 13.2
  FSH: 196.3 ± 21.2 ng/mL
[2]; Table 4 experiment
  MEC for a statistically significant release of FSH relative to c-LHRH-II: two orders of magnitude lower
[3]
  estradiol and progesterone release from lamprey ovaries (result in words): stimulated estradiol and progesterone release
Plasma FSH; 10 pmole intravenous
  Change in FSH from baseline, 10 minutes in post-injection (ng/ml): **−0.75 ± 0.37 ng/ml
Plasma FSH; 100 pmole intravenous
  Change in FSH from baseline, 10 minutes in post-injection (ng/ml): **−0.43 ± 0.61 ng/ml
Plasma FSH; [9]
  FSH release in vivo (result in words): increase in FSH in vivo (P<0.01) within ten minutes; also recorded: highly significant increase in plasma FSH 10 minutes after injection, an effect that vanished by 30 minutes post-injection; also recorded: slightly greater effect at 10 minutes that was maintained 30 minutes after injection; also recorded: caused the release of FSH in vivo, but not LH

## pGlu-His-Trp-Ser-His-Gly-Trp-Tyr-Pro-Gly-NH2 (XHWSHGWYPX; HELM PEPTIDE1{[Glp].H.W.S.H.G.W.Y.P.G.[am]}$$$$V2.0; SMILES NC(=O)CNC(=O)[C@@H]1CCCN1C(=O)[C@H](Cc1ccc(O)cc1)NC(=O)[C@H](Cc1c[nH]c2ccccc12)NC(=O)CNC(=O)[C@H](Cc1c[nH]cn1)NC(=O)[C@H](CO)NC(=O)[C@H](Cc1c[nH]c2ccccc12)NC(=O)[C@H](Cc1c[nH]cn1)NC(=O)[C@@H]1CCC(=O)N1) [c-LHRH-II, reference compound]
[1]
  LH release in vitro (result in words): equivalent LH-releasing activity to that of m-LHRH
[1]; [10]
  LH (ng/ml): *239.0 ± 31.7 ng/ml
[1]; [11]
  LH (ng/ml): *216.3 ± 17.7 ng/ml
[1]; [12]
  LH (ng/ml): *199.3 ± 13.6 ng/ml
[1]; listed as Chicken (c) LHRH-II
  LH release in vitro (result in words): stimulated LH release
[2]
  FSH release in vitro (result in words): low potency
[2]; [13]
  FSH (ng/ml): ***263.7 ± 17.8 ng/ml
[2]; [14]
  FSH: 209.3 ± 44.0 ng/mL
[2]; [15]
  FSH: 123.7 ± 18.0 ng/mL
[2]; Table 4 experiment, highest concentration tested
  concentration significantly increasing FSH release: 10^−6 M
[4]
  selectivity for FSH release in vivo (result in words): slight selectivity for FSH release
[4]; listed as chicken (c) LHRH-II
  selectivity for FSH release in vivo (result in words): slightly preferential FSH-releasing activity in vivo

## pGlu-His-Trp-Ser-Tyr-Gly-Trp-Leu-Pro-Gly-NH2 (XHWSYGWLPX; HELM PEPTIDE1{[Glp].H.W.S.Y.G.W.L.P.G.[am]}$$$$V2.0; SMILES CC(C)C[C@H](NC(=O)[C@H](Cc1c[nH]c2ccccc12)NC(=O)CNC(=O)[C@H](Cc1ccc(O)cc1)NC(=O)[C@H](CO)NC(=O)[C@H](Cc1c[nH]c2ccccc12)NC(=O)[C@H](Cc1c[nH]cn1)NC(=O)[C@@H]1CCC(=O)N1)C(=O)N1CCC[C@H]1C(=O)NCC(N)=O) [s-LHRH, reference compound]
[1]
  LH release in vitro (result in words): stimulated the release of both FSH and LH
[1]; [10]
  LH: 186.2 ± 13.6 ng/mL
[1]; [11]
  LH (ng/ml): *230.8 ± 38.8 ng/ml
[2]; [13]
  FSH: 203.2 ± 39.2 ng/mL
[2]; [14]
  FSH (ng/ml): *233.0 ± 37.4 ng/ml
[2]; listed as Salmon (s)-LHRH
  FSH release in vitro (result in words): stimulated the release of both FSH and LH
[2]; listed as Salmon LHRH
  FSH release in vitro (result in words): low potency

— patent US6407205B1, “FSH-releasing peptides” (Board of Supervisors of Louisiana State University and …, priority 1997, dated 2002)
